Where “and” joins values, the source holds several entries; their conditions need not be identical. Equal values may be shown once. Inconclusive results and toxic doses are left out.

Here are results for 20 molecules from PubChem BioAssay AID256 (DTP/NCI, 2004).

In the assay the test system is CD2F1 mice, L1210 leukemia ip, survival T/C. As to the kind of experiment: NCI In Vivo Anticancer Drug Screen. Data for tumor model L1210 Leukemia (intraperitoneal) in CD2F1 (CDF1) mice. Conditions: higher = longer survival. The method, boiled down: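 In this screen, transplantable tumors were grown in mice given either the compound or its vehicle. Results were expressed as the treated measurement relative to the control measurement.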

[1] abbreviates: endpoint: mean survival time, dose: 100.0 mg/kg/injection, schedule: Q04DX002 (ip), vehicle: saline with Tween-80.
[2] abbreviates: endpoint: mean survival time, dose: 200.0 mg/kg/injection, schedule: Q04DX002 (ip), vehicle: saline with Tween-80.
Where [3] appears, read: endpoint: mean survival time, dose: 400.0 mg/kg/injection, schedule: Q04DX002 (ip), vehicle: saline with Tween-80.
Setting [4] is: endpoint: mean survival time, dose: 100.0 mg/kg/injection, schedule: Q04DX003 (ip), vehicle: saline with Tween-80.
The mark [5] stands for this setting: endpoint: mean survival time, dose: 200.0 mg/kg/injection, schedule: Q04DX003 (ip), vehicle: saline with Tween-80.
The mark [6] stands for this setting: endpoint: mean survival time, dose: 400.0 mg/kg/injection, schedule: Q04DX003 (ip), vehicle: saline with Tween-80.
[7] abbreviates: endpoint: mean survival time, dose: 100.0 mg/kg/injection, schedule: Q01DX001 (ip), vehicle: saline with Tween-80.
The mark [8] stands for this setting: endpoint: mean survival time, dose: 200.0 mg/kg/injection, schedule: Q01DX001 (ip), vehicle: saline with Tween-80.
Setting [9] is: endpoint: mean survival time, dose: 400.0 mg/kg/injection, schedule: Q01DX001 (ip), vehicle: saline with Tween-80.
The mark [10] stands for this setting: endpoint: mean survival time, dose: 100.0 mg/kg/injection, schedule: Q01DX001 (ip), vehicle: saline.
[11] abbreviates: endpoint: mean survival time, dose: 100.0 mg/kg/injection, schedule: Q01DX009 (ip), vehicle: other.
The mark [12] stands for this setting: endpoint: mean survival time, dose: 200.0 mg/kg/injection, schedule: Q01DX009 (ip), vehicle: other.
The mark [13] stands for this setting: endpoint: mean survival time, dose: 75.0 mg/kg/injection, schedule: Q01DX001 (ip), vehicle: saline.
[14] abbreviates: endpoint: mean survival time, dose: 100.0 mg/kg/injection, schedule: Q01DX009 (ip), vehicle: saline with Tween-80.
Setting [15] is: endpoint: mean survival time, dose: 200.0 mg/kg/injection, schedule: Q01DX009 (ip), vehicle: saline with Tween-80.
Setting [16] is: endpoint: mean survival time, dose: 400.0 mg/kg/injection, schedule: Q01DX009 (ip), vehicle: saline with Tween-80.

`CC(=O)O[C@@H]1[C@@H](O)[C@H]2O[C@@H]3C=C(C)CC[C@]3(CO)[C@]1(C)[C@@]21CO1`: the T/C runs as follows: (endpoint: mean survival time, dose: 1.25 mg/kg/injection, schedule: Q01DX009 (ip), vehicle: saline with Tween-80) 103 % of control; (endpoint: mean survival time, dose: 2.5 mg/kg/injection, schedule: Q01DX009 (ip), vehicle: saline with Tween-80) 115 % of control; (endpoint: mean survival time, dose: 5.0 mg/kg/injection, schedule: Q01DX009 (ip), vehicle: saline with Tween-80) 115 % of control.

On to `Cc1cccc(NC(=O)COc2c(C)cc(Cl)cc2Cl)c1`, for which the T/C by setting is: under setting [1], 98 % of control; under setting [2], 94 % of control; under setting [3], 90 % of control.

On to `O=Cc1cc(=O)[nH]c2ccccc12`, for which the T/C under setting [4] is 96 % of control, the T/C under setting [5] was 98 % of control and the T/C under setting [6] was 100 % of control.

With `CCOC(=O)CC(=O)c1ccc(C(=O)CC(=O)OCC)cc1`, the T/C reads like this: under setting [7], 89 % of control; under setting [8], 89 % of control; under setting [9], 89 % of control.

As to `Cc1cccc(N)n1`, the T/C (endpoint: mean survival time, dose: 3.13 mg/kg/injection, schedule: Q04DX002 (ip), vehicle: saline) was 94 % of control; the T/C (endpoint: mean survival time, dose: 6.25 mg/kg/injection, schedule: Q04DX002 (ip), vehicle: saline) was 90 % of control; the T/C (endpoint: mean survival time, dose: 12.5 mg/kg/injection, schedule: Q04DX002 (ip), vehicle: saline) was 90 % of control.

As to `CC1(CO)CCCC2(C)C3=C(CCCC3)CCC12` (stereo not drawn), the T/C by setting is: (endpoint: mean survival time, dose: 50.0 mg/kg/injection, schedule: Q04DX003 (ip), vehicle: saline with Tween-80) 97 % of control; under setting [4], 101 % of control; under setting [5], 97 % of control.

Take `O=c1cc[nH]c2c(-c3ccccc3)cccc12`: the T/C runs as follows: (endpoint: mean survival time, dose: 37.5 mg/kg/injection, schedule: Q01DX009 (ip), vehicle: saline) 108 % of control; (endpoint: mean survival time, dose: 75.0 mg/kg/injection, schedule: Q01DX009 (ip), vehicle: saline) 105 % of control; (endpoint: mean survival time, dose: 75.0 mg/kg/injection, schedule: Q04DX003 (ip), vehicle: saline) 95 % of control; (endpoint: mean survival time, dose: 150.0 mg/kg/injection, schedule: Q01DX009 (ip), vehicle: saline) 97 % of control; (endpoint: mean survival time, dose: 150.0 mg/kg/injection, schedule: Q04DX003 (ip), vehicle: saline) 98 % of control; (endpoint: mean survival time, dose: 300.0 mg/kg/injection, schedule: Q04DX003 (ip), vehicle: saline) 97 % of control.

Take `C[C@]12CC[C@H](O)C[C@@H]1CC[C@@H]1[C@@H]2C(=O)C[C@@]2(C)[C@H]1CC[C@]2(O)C(=O)CBr`: the T/C (endpoint: mean survival time, dose: 100.0 mg/kg/injection, schedule: Q01DX009 (sc), vehicle: steriod suspending solution) was 97 % of control; the T/C (endpoint: mean survival time, dose: 100.0 mg/kg/injection, schedule: Q04DX003 (sc), vehicle: steriod suspending solution) is 97 % of control; the T/C (endpoint: mean survival time, dose: 200.0 mg/kg/injection, schedule: Q01DX009 (sc), vehicle: steriod suspending solution) is 94 % of control; the T/C (endpoint: mean survival time, dose: 200.0 mg/kg/injection, schedule: Q04DX003 (sc), vehicle: steriod suspending solution) is 95 % of control; the T/C (endpoint: mean survival time, dose: 400.0 mg/kg/injection, schedule: Q01DX009 (sc), vehicle: steriod suspending solution) is 90 % of control; the T/C (endpoint: mean survival time, dose: 400.0 mg/kg/injection, schedule: Q04DX003 (sc), vehicle: steriod suspending solution) is 95 % of control.

Consider `CNc1ccc(C(=O)O)cc1C(F)(F)F`, for which the T/C under setting [10] was 102 % of control; the T/C (endpoint: mean survival time, dose: 200.0 mg/kg/injection, schedule: Q01DX001 (ip), vehicle: saline) was 101 % of control; the T/C (endpoint: mean survival time, dose: 400.0 mg/kg/injection, schedule: Q01DX001 (ip), vehicle: saline) was 102 % of control.

Turning to `COc1cccc2c1C(=O)c1c(O)c3c(c(O)c1C2=O)C[C@@](O)(C(O)CO)C[C@@H]3OC1CC(N(Cc2ccccc2)Cc2ccccc2)C(O)C(C)O1` (stereo partly drawn), the T/C (endpoint: median survival time, dose: 6.25 mg/kg/injection, schedule: Q01DX009 (ip), vehicle: water) is 122 % of control.

As for `O=C1CSc2nc3ccccc3n21`, the T/C by setting is: under setting [11], 98 % of control; under setting [12], 98 % of control; (endpoint: mean survival time, dose: 400.0 mg/kg/injection, schedule: Q01DX009 (ip), vehicle: other) 105 % of control.

For `C#CCNC1=C(C)C(=O)C2=C(C1=O)[C@H](COC(N)=O)[C@]1(OC)[C@@H]3N[C@@H]3CN21`, the T/C (endpoint: mean survival time, dose: 1.5 mg/kg/injection, schedule: Q01DX001 (ip), vehicle: distilled water + Tween-80) was 112 % of control; the T/C (endpoint: mean survival time, dose: 3.0 mg/kg/injection, schedule: Q01DX001 (ip), vehicle: distilled water + Tween-80) is 120 % of control and 102 % of control; the T/C (endpoint: mean survival time, dose: 6.0 mg/kg/injection, schedule: Q01DX001 (ip), vehicle: distilled water + Tween-80) is 110 % of control; the T/C (endpoint: mean survival time, dose: 24.0 mg/kg/injection, schedule: Q01DX001 (ip), vehicle: distilled water + Tween-80) was 186 % of control; the T/C (endpoint: mean survival time, dose: 48.0 mg/kg/injection, schedule: Q01DX001 (ip), vehicle: distilled water + Tween-80) was 87 % of control; the T/C (endpoint: median survival time, dose: 6.0 mg/kg/injection, schedule: Q01DX009 (ip), vehicle: distilled water + Tween-80) was 166 % of control. Moreover, the T/C runs as follows: (endpoint: median survival time, dose: 6.25 mg/kg/injection, schedule: Q01DX009 (ip), vehicle: distilled water + Tween-80) 178 % of control; (endpoint: median survival time, dose: 12.5 mg/kg/injection, schedule: Q01DX009 (ip), vehicle: distilled water + Tween-80) 101 % of control; (endpoint: median survival time, dose: 25.0 mg/kg/injection, schedule: Q01DX009 (ip), vehicle: distilled water + Tween-80) 92 % of control.

Consider `C/C(=N\NC(N)=S)c1ccc2cc3c(cc2c1)OCO3`, for which, under setting [13], the T/C was 119 % of control.

With `CSc1ccc(C)cn1` (tested in a mixture with another compound), the T/C under setting [14] is 100 % of control and the T/C under setting [15] was 97 % of control.

As for `COc1cc([N+](=O)[O-])ccc1NC(=O)N1CCCC(C)C1` (stereo not drawn), the T/C runs as follows: under setting [7], 94 % of control and 95 % of control; under setting [14], 88 % of control and 93 % of control; under setting [1], 98 % of control; under setting [4], 101 % of control; under setting [8], 86 % of control and 89 % of control; under setting [15], 95 % of control and 106 % of control. Moreover, the T/C was 98 % of control under setting [2]; 103 % of control under setting [5]; 86 % of control under setting [9]; 88 % of control and 98 % of control under setting [16]; 96 % of control under setting [3]; 100 % of control under setting [6].

Regarding `CNC(=O)Nc1ccc(OS(=O)(=O)N(C)C)cc1`, the T/C was 101 % of control under setting [4], 101 % of control under setting [5] and 101 % of control under setting [6].

Take `Nc1c(Cl)cc(Cl)c(-c2c(Cl)cc(Cl)c(N)c2Cl)c1Cl`: the T/C was 100 % of control (endpoint: mean survival time, dose: 12.5 mg/kg/injection, schedule: Q01DX009 (ip), vehicle: other); 101 % of control (endpoint: mean survival time, dose: 25.0 mg/kg/injection, schedule: Q01DX009 (ip), vehicle: other); 101 % of control (endpoint: mean survival time, dose: 50.0 mg/kg/injection, schedule: Q01DX009 (ip), vehicle: other); 97 % of control under setting [11]; 94 % of control under setting [12].

In the case of `CCN(CC)CC[C-]=O.[NH-]CC[NH-].[Pd]`, the T/C was 101 % of control (endpoint: mean survival time, dose: 3.13 mg/kg/injection, schedule: Q04DX003 (ip), vehicle: water); 101 % of control (endpoint: mean survival time, dose: 6.25 mg/kg/injection, schedule: Q04DX003 (ip), vehicle: water); 101 % of control (endpoint: mean survival time, dose: 12.5 mg/kg/injection, schedule: Q04DX003 (ip), vehicle: water); 93 % of control (endpoint: mean survival time, dose: 25.0 mg/kg/injection, schedule: Q04DX003 (ip), vehicle: water); 93 % of control (endpoint: mean survival time, dose: 50.0 mg/kg/injection, schedule: Q04DX003 (ip), vehicle: water).

`Cc1ccc(S(=O)(=O)OC2C(COCC(=O)O)OC3OC(C)(C)OC32)cc1` (stereo not drawn): the T/C reads like this: under setting [14], 95 % of control; under setting [4], 98 % of control; under setting [15], 93 % of control; under setting [5], 101 % of control; under setting [16], 90 % of control; under setting [6], 93 % of control.

As to `CC(C)(C)N1CCc2cc3c(cc2C1)OCO3`, the T/C was 100 % of control (endpoint: mean survival time, dose: 50.0 mg/kg/injection, schedule: Q01DX001 (ip), vehicle: saline); 103 % of control under setting [13]; 96 % of control and 97 % of control under setting [10].
